Paper PMC3474971 (2012)

How the values were obtained:
[1] = tested on: theophylline aptamer (RNA, aptamer) GGUGAUACCAGCAUCGUCUUGAUGCCCUUGGCAGCACC; assay: fluorescence change of staining dye; conditions: 140 mM NaCl, 5 mM KCl, 5 mM MgCl2, 20 mM Tris-Cl pH 7.5, 25 °C, aptamer 10 nM
[2] = tested on: thrombin-binding aptamer (TBA) (DNA, G4) GGTTGGTGTGGTTGG; assay: fluorescence of dye-aptamer complex; conditions: 300 mM NaCl, 5 mM MgCl2, 10 mM KCl; 20 mM Tris-Cl pH 7.5, 25 °C; dye 25 nM, aptamer 10 nM
[3] = tested on: theophylline aptamer (RNA, aptamer) GGUGAUACCAGCAUCGUCUUGAUGCCCUUGGCAGCACC; assay: fluorescence of dye-aptamer complex; conditions: 140 mM NaCl, 5 mM KCl, 5 mM MgCl2; 20 mM Tris-Cl pH 7.5, 25 °C; dye 25 nM, aptamer 10 nM
[4] = tested on: ATP aptamer (DNA, aptamer) ATAGCGGAGGAAGGATACCTGGGGGAGTATAT; assay: fluorescence of dye-aptamer complex; conditions: 300 mM NaCl, 5 mM MgCl2, 10 mM KCl; 20 mM Tris-Cl pH 7.5, 25 °C; dye 25 nM, aptamer 10 nM
[5] = tested on: ATP aptamer (DNA, aptamer) ATAGCGGAGGAAGGATACCTGGGGGAGTATAT; assay: fluorescence change of staining dye; conditions: 300 mM NaCl, 5 mM MgCl2, 10 mM KCl, 20 mM Tris-Cl pH 7.5, 25 °C, Hoechst 33258 25 nM as indicator, aptamer 10 nM

Compound: Cn1c(=O)c2[nH]cnc2n(C)c1=O
- binding ([1]; TO or SYBR Green 25 nM as indicator): yes

Compound: CCCN(CCCN(C)C)c1cc(C=C2Sc3ccccc3N2C)c2ccccc2[n+]1-c1ccccc1
- binding [2]: yes
- binding [3]: yes

Compound: C[n+]1c(C=C2C=CN(CCC[N+](C)(C)CCC[N+](C)(C)CCCN3C=CC(=Cc4oc5ccccc5[n+]4C)c4ccccc43)c3ccccc32)oc2ccccc21
- binding [4]: yes
- binding [2]: yes

Compound: Cn1c(=O)c2c(ncn2C)n(C)c1=O
- binding ([1]; TO 25 nM as indicator, huge excess of caffeine): no

Compound: CN1CCN(c2ccc3nc(-c4ccc5nc(-c6ccc(O)cc6)[nH]c5c4)[nH]c3c2)CC1
- binding [4]: yes

Compound: CN1C(=Cc2cc[n+](C)c3ccccc23)Sc2ccccc21
- binding [2]: yes
- binding [3]: yes

Compound: Nc1ncnc2c1ncn2[C@@H]1O[C@H](COP(=O)(O)OP(=O)(O)OP(=O)(O)O)[C@@H](O)[C@H]1O
- binding [5]: yes

Compound: Nc1nc2c(ncn2[C@@H]2O[C@H](COP(=O)(O)OP(=O)(O)OP(=O)(O)O)[C@@H](O)[C@H]2O)c(=O)[nH]1
- binding ([5]; ~5% change, within error): no
